The record followed here is patent US12083124B2 (Incyte Corporation, priority 2019, dated 2024).

For assay [1], the target named is wild-type un-phosphorylated FGFR1 (Homo sapiens, UniProt P11362). Description: FGFR Enzymatic Assay (FRET peptide phosphorylation), FGFR1. The following applies: pre-incubated for 4 hours.
In assay [2] the target is wild-type un-phosphorylated FGFR3 (Homo sapiens, UniProt P22607). Nature of the assay: FGFR Enzymatic Assay (FRET peptide phosphorylation), FGFR3.
Assay [3] addresses wild-type un-phosphorylated FGFR2 (Homo sapiens, UniProt P21802). Description: FGFR Enzymatic Assay (FRET peptide phosphorylation), FGFR2.
The mark [4] stands for this setting: read-out: FGFR1, wild-type un-phosphorylated FGFR1.
The mark [5] stands for this setting: FGFR1, wild-type un-phosphorylated FGFR1.
The mark [6] stands for this setting: read-out: FGFR2, wild-type un-phosphorylated FGFR2, pre-incubated for 4 hours.

Read-outs that look alike come from different tables or passages of the source.

Sequence of wild-type un-phosphorylated FGFR3 (P22607 23-806): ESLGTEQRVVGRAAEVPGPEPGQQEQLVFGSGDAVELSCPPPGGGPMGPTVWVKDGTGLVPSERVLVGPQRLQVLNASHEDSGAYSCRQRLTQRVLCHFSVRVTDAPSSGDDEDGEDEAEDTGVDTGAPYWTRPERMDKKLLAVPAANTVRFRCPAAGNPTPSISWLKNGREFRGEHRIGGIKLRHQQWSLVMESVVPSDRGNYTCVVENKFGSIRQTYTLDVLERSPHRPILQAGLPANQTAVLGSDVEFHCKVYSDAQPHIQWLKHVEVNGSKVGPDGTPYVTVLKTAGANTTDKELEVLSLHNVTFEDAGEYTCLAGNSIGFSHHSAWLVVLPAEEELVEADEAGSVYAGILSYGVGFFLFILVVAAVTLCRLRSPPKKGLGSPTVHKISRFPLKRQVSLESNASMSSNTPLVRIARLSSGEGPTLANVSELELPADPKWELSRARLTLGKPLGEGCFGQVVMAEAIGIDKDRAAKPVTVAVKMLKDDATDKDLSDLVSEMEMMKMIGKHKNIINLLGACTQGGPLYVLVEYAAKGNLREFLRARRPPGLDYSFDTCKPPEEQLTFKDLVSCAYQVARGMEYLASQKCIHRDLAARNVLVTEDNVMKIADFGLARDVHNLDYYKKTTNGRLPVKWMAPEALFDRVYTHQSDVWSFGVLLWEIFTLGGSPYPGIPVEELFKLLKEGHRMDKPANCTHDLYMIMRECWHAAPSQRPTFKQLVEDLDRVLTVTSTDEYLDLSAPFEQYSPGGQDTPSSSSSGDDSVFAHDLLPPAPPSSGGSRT
Sequence of wild-type un-phosphorylated FGFR2 (P21802 22-821): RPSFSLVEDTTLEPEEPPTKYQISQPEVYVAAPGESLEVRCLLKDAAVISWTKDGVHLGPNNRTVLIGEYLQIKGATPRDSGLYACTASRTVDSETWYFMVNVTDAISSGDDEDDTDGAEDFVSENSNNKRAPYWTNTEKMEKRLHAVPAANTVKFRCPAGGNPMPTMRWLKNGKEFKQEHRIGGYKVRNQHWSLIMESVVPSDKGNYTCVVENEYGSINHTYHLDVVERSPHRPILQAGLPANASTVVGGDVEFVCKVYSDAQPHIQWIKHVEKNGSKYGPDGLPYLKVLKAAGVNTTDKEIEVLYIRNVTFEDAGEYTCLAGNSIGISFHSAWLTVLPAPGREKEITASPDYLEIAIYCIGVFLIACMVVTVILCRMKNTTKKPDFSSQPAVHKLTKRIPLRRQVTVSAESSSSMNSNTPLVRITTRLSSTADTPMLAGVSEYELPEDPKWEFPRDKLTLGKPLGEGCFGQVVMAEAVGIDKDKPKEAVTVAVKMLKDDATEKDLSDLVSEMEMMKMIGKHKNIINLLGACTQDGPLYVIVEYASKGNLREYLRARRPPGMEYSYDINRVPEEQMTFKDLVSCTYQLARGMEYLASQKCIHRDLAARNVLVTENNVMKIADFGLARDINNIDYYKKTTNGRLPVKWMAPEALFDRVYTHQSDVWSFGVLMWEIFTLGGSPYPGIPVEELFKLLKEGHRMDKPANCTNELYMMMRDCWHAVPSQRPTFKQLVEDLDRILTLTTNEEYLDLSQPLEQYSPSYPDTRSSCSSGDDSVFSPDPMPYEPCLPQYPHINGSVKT
Sequence of wild-type un-phosphorylated FGFR1 (P11362 22-822): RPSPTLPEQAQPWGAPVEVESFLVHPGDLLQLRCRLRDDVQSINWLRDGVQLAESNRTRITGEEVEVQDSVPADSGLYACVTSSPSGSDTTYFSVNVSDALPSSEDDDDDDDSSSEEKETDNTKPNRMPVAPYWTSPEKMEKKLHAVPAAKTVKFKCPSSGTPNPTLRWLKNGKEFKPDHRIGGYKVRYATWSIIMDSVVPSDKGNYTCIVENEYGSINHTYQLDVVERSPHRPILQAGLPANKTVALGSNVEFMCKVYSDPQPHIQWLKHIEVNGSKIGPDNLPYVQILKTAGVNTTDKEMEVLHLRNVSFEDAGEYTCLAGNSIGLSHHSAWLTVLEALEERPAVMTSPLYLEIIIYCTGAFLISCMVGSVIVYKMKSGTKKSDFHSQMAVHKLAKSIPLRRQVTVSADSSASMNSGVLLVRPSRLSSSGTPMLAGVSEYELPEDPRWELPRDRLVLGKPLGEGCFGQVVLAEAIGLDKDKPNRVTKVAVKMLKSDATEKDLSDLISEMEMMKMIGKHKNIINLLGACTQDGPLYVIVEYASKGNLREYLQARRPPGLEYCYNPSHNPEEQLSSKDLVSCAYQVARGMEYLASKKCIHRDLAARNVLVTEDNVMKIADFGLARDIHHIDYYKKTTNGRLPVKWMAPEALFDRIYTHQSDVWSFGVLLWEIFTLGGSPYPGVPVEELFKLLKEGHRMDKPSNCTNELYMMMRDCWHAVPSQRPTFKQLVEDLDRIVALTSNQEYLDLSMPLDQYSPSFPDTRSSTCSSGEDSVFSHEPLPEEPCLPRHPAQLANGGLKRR

Turning to `COc1cc2[nH]nc(-c3ccc(C4(C#N)CCN(C(=O)[C@H]5COCCN5C)CC4)nc3)c2nc1-c1cccc2c1CCC2` [Example 196, (R)-4-(5-(5-(2,3-Dihydro-1H-inden-4-yl)-6-methoxy-1H-pyrazolo[4,3-b]pyridin-3-yl)pyridin-2-yl)-1-(4-methylmorpholine-3-carbonyl)piperidine-4-carbonitrile], the IC50 was 6 to 40 nM in assay [1] (setting [4]), under 6 nM in assay [2] and under 6 nM in assay [3].

Turning to `Cn1cc(-c2n[nH]c3cc(Cl)c(-c4cccc5c4CC(O)C5)nc23)cn1` (single isomer, unassigned) [Example 39, 4-(6-Chloro-3-(1-methyl-1H-pyrazol-4-yl)-1H-pyrazolo[4,3-b]pyridin-5-yl)-2,3-dihydro-1H-inden-2-ol], the values for the IC50 in assay [1] (setting [5]), in assay [2] and in assay [3] (setting [6]) were 40 to 100 nM, under 6 nM and 6 to 40 nM, respectively.

`COc1cc2[nH]nc(-c3cnn(C45CC4CN(C(=O)CO)C5)c3)c2nc1-c1cccc2c1CCC2` (stereo not drawn) [Example 197, 1-(1-(4-(5-(2,3-Dihydro-1H-inden-4-yl)-6-methoxy-1H-pyrazolo[4,3-b]pyridin-3-yl)-1H-pyrazol-1-yl)-3-azabicyclo[3.1.0]hexan-3-yl)-2-hydroxyethan-1-one]: the IC50 in assay [1] (setting [4]) was 6 to 40 nM; in assay [2] it was under 6 nM; in assay [3], under 6 nM.

On to `COc1cc2[nH]nc(-c3ccc(N4CCN5C[C@H](O)C[C@H]5C4)nc3)c2nc1-c1cccc2c1OCCO2` [Example 91, (7R,8aS)-2-(5-(5-(2,3-Dihydrobenzo[b][1,4]dioxin-5-yl)-6-methoxy-1H-pyrazolo[4,3-b]pyridin-3-yl)pyridin-2-yl)octahydropyrrolo[1,2-a]pyrazin-7-ol], for which the IC50 in assay [1] (setting [5]) was over 100 nM; in assay [2], under 6 nM; in assay [3] (setting [6]) it was 6 to 40 nM.

On to `COc1cc2[nH]nc(-c3ccc(N4C[C@@H](F)[C@@H](N)C4)nc3)c2nc1-c1cccc(C)c1C` [Example 80, (3S,4R)-1-(5-(5-(2,3-Dimethylphenyl)-6-methoxy-1H-pyrazolo[4,3-b]pyridin-3-yl)pyridin-2-yl)-4-fluoropyrrolidin-3-amine], for which the figures for the IC50 in assay [1] (setting [5]), in assay [2] and in assay [3] were 40 to 100 nM, under 6 nM and under 6 nM, respectively.

`COc1cc2[nH]nc(-c3ccc(C45CC4CN(CCO)C5)nc3)c2nc1-c1cccc2c1CCC2` (single isomer, unassigned) [Example 194B, 2-(1-(5-(5-(2,3-Dihydro-1H-inden-4-yl)-6-methoxy-1H-pyrazolo[4,3-b]pyridin-3-yl)pyridin-2-yl)-3-azabicyclo[3.1.0]hexan-3-yl)ethan-1-ol]: the figures for the IC50 in assay [1] (setting [4]), in assay [2] and in assay [3] were 6 to 40 nM, under 6 nM and under 6 nM, respectively.

In the case of `COc1cc2[nH]nc(-c3ccc(N4CCN5C[C@H](O)C[C@H]5C4)nc3)c2nc1-c1cccc(OC)c1C` [Example 90, (7R,8aS)-2-(5-(6-Methoxy-5-(3-methoxy-2-methylphenyl)-1H-pyrazolo[4,3-b]pyridin-3-yl)pyridin-2-yl)octahydropyrrolo[1,2-a]pyrazin-7-ol], the IC50 in assay [1] (setting [5]) was over 100 nM; in assay [2] it was under 6 nM; in assay [3] (setting [6]) it was 6 to 40 nM.

With `COc1cc2[nH]nc(-c3cnn(C)c3)c2nc1-c1cccc2c1CCC2CO` (single isomer, unassigned) [Example 11, (4-(6-Methoxy-3-(1-methyl-1H-pyrazol-4-yl)-1H-pyrazolo[4,3-b]pyridin-5-yl)-2,3-dihydro-1H-inden-1-yl)methanol], the values for the IC50 in assay [1] (setting [5]), in assay [2] and in assay [3] were 40 to 100 nM, under 6 nM and under 6 nM, respectively.

On to `COc1cc2[nH]nc(-c3ccc(C4CCN(C(=O)CO)CC4)nc3)c2nc1-c1cccc2c1CC(F)C2` (stereo not drawn) [Example 82, 1-(4-(5-(5-(2-Fluoro-2,3-dihydro-1H-inden-4-yl)-6-methoxy-1H-pyrazolo[4,3-b]pyridin-3-yl)pyridin-2-yl)piperidin-1-yl)-2-hydroxyethan-1-one], for which the IC50 is 6 to 40 nM in assay [1] (setting [4]), under 6 nM in assay [2] and under 6 nM in assay [3].
